The target in this test is 15-PGDH (Homo sapiens (Human), UniProt P15428). In words: Assay for the activities of 15-PGDH inhibitors (formation of NADH at 340 nm). Particulars: purified 15-PGDH enzyme, 21 μM PGE2, 0.25 mM NAD+, pH 7.5; concentration inhibiting 50% of 15-PGDH activity. The format is biochemical. As to the method:
<1-1> Expression and Purification of 15-PGDH
A 15-PGDH cDNA plasmid containing BamHI and EcoRI sites of the pGES-2T expression vector was used to transform Escherichia coli BL-21 lysS in accordance with the ordinarily used in the art. The transformed cells were grown in 500 mL LB medium containing 50 μg/mL ampicillin at 37° C. while being stirred at 220 rpm until the OD600 reached 0.6. Isopropyl β-D-thiogalactoside (1 mM) was added and the cells were allowed to grow for 12 hours at 25° C. Then, the pellets were harvested by centrifugation at 4000×g for 30 minutes at 4° C. The cell pallets were resuspended in 20 mL cell lysis buffer (1×PBS buffer (pH 7.4) containing 1 mM EDTA and 0.1 mM DTT) and sonicated (14×10 s at 4° C.). The disrupted cells were centrifuged at 4000×g for 20 minutes at 4° C. The supernatant was loaded slowly on a glutathione-sepharose 4B column, which was equilibrated at 4° C. with a cell lysis buffer (1×PBS buffer (pH 7.4) containing 1 mM EDTA and 0.1 mM DTT). The column was washed with the lysis buffer until OD280 reached below 0.005. Then, 15-PGDH was eluted from the glutathione-sepharose 4B column at room temperature for 5 minutes by using the elution buffer (50 mM Tris-HCl (pH 8.0) containing 10 mM reduced glutathione, 1 mM EDTA and 0.1 mM DTT). The concentration and the purity of the purified enzyme were determined by SDS-PAGE.
<1-2> Assay for the Activities of 15-PGDH Inhibitors
The absorbance of the reaction mixture was recorded at 340 nm so that the activities of the derivatives according to the present invention as 15-PGDH inhibitors were determined from a standard curve prepared from the absorbance of various concentrations of NADH at 340 nm.

pIC50: −log10 of the molar value.

Sequence of 15-PGDH (P15428 whole entry): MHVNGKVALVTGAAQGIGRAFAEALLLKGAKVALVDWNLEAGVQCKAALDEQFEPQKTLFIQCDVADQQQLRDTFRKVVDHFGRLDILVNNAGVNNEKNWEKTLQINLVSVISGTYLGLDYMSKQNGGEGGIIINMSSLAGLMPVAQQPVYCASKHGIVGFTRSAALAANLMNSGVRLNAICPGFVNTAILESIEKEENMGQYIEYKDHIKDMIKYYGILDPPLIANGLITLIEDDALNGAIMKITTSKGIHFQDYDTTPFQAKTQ

What is called pIC50 is the IC50 on a negative log10 scale, so that one unit is a factor of ten. With `O=C1NC(=O)C(Cc2ccc(OCC3CCCCC3)c(Cl)c2)S1` (centres unmarked), the pIC50 was 6.28.

Regarding `O=C1NC(=O)C(Cc2ccc(OCC3CCCCC3)c(Cl)c2)S1` (single isomer, unassigned), the pIC50 is 6.90.

Regarding `CC(C)OCCOc1ccc(/C=C2\SC(=O)NC2=O)cc1` [Derivative 1, 5-(4-(2-isopropoxyethoxy)benzylidene)thiazolidine-2,4-dione], the pIC50 is 6.02.

Take `O=C1NC(=O)/C(=C/c2ccc(OCCN3CCOCC3)cc2)S1` [Derivative 2, 5-(4-(2-morpholinoethoxy)benzylidene)thiazolidine-2,4-dione]: the pIC50 was 6.29.

Consider `O=C1NC(=O)/C(=C/c2ccc(OCCc3cccs3)cc2)S1` [Derivative 3, 5-(4-(2-(thiophen-2-yl)ethoxy)benzylidene)thiazolidine-2,4-dione], for which the pIC50 was 7.02.

`O=C1NC(=O)/C(=C/c2ccc(OCCc3ccsc3)cc2)S1` [Derivative 4, 5-(4-(2-(thiophen-3-yl)ethoxy)benzylidene)thiazolidine-2,4-dione] gave a pIC50 of 6.83.

`O=C1NC(=O)/C(=C/c2ccc(OCCN3CCS(=O)(=O)CC3)cc2)S1` [Derivative 5, 5-[4-(2-thiomorpholine-1,1-dioxideethoxy)benzylidene]thiazolidine-2,4-dione] had a pIC50 of 5.86.

Turning to `O=C1NC(=O)/C(=C/c2ccc(OCCc3ccccn3)cc2)S1` [Derivative 6, 5-(4-(2-(pyridin-2-yl)ethoxy)benzylidene)thiazolidine-2,4-dione], the pIC50 was 6.23.

On to `O=C1NC(=O)/C(=C/c2ccc(OCCNC3CCCCC3)cc2)S1` [Derivative 7, 5-(4-(2-(cyclohexylamino)ethoxy)benzylidene)thiazolidine-2,4-dione], for which the pIC50 is 5.58.

For the compound `COc1cc(/C=C2\SC(=O)NC2=O)ccc1OCCC1CCCCC1` [Derivative 8, 5-(4-(2-cyclohexylethoxy)-3-methoxybenzylidene)thiazolidine-2,4-dione], the pIC50 is 7.64.

In the case of `Cc1cc(/C=C2\SC(=O)NC2=O)ccc1OCCC1CCCCC1` [Derivative 9, 5-(4-(2-cyclohexylethoxy)-3-methylbenzylidene)thiazolidine-2,4-dione], the negative-log IC50 (pIC50) was 7.26.

Consider `COc1cc(/C=C2\SC(=O)NC2=O)cc(OC)c1OCCC1CCCCC1` [Derivative 10, 5-(4-(2-cyclohexylethoxy)-3,5-dimethoxybenzylidene)thiazolidine-2,4-dione], for which the negative-log IC50 (pIC50) was 7.02.

`O=C1NC(=O)/C(=C/c2ccc(OCCC3CCCCC3)c(Cl)c2)S1` [Derivative 11, 5-(3-chloro-4-(2-cyclohexylethoxy)benzylidene)thiazolidine-2,4-dione] showed a pIC50 of 8.14.

`O=C1NC(=O)/C(=C/c2ccc(OCCCC3CCCCC3)c([N+](=O)[O-])c2)S1` [Derivative 12, 5-(4-(3-cyclohexylpropoxy)-3-nitrobenzylidene)thiazolidine-2,4-dione] gave a pIC50 of 6.49.

Regarding `O=C1NC(=S)/C(=C/c2ccc(OCCC3CCCCC3)cc2)S1` [Derivative 13, 5-(4-(2-cyclohexylethoxy)benzylidene)-4-thioxothiazolidin-2-one], the pIC50 is 6.16.

In turn, `O=C1NC(=O)/C(=C/c2ccc(OCCN3CCCCC3)cc2)S1` [Derivative 14, 5-(4-(2-(piperidin-1-yl)ethoxy)benzylidene)thiazolidine-2,4-dione] showed a pIC50 of 5.85.

`O=C1NC(=O)/C(=C/c2ccc(OCCC3CCCCC3)c(Br)c2)S1` [Derivative 15, 5-(3-bromo-4-(2-cyclohexylethoxy)benzylidene)thiazolidine-2,4-dione] had a pIC50 of 8.18.

As for `O=C1NC(=O)/C(=C/c2ccc(OCCC3CCCCC3)c(C(F)(F)F)c2)S1` [Derivative 16, 5-(4-(2-cyclohexylethoxy)-3-(trifluoromethyl)benzylidene)thiazolidine-2,4-dione], the pIC50 is 7.14.

On to `O=C1NC(=O)/C(=C/c2ccc(OCCC3CCCCC3)cc2Cl)S1` [Derivative 18, 5-(2-chloro-4-(2-cyclohexylethoxy)benzylidene)thiazolidine-2,4-dione], for which the pIC50 is 7.71.

The compound `Cc1ncsc1CCOc1ccc(/C=C2\SC(=O)NC2=O)cc1` [Derivative 19, 5-(4-(2-(4-methylthiazol-5-yl)ethoxy)benzylidene)thiazolidine-2,4-dione] showed a pIC50 of 5.93.

As for `O=C1NC(=O)/C(=C/c2ccc(OCCC3CCCCC3)c(F)c2)S1` [Derivative 20, 5-(4-(2-cyclohexylethoxy)-3-fluorobenzylidene)thiazolidine-2,4-dione], the pIC50 was 7.29.

`O=C1NC(=O)/C(=C/c2ccc(OCCCN3CCS(=O)(=O)CC3)cc2)S1` [Derivative 21, 5-[4-(3-thiomorpholine-1,1-dioxidepropoxy)benzylidene]-thiazolidine-2,4-dione] had a pIC50 of 5.52.

`O=C1NC(=O)/C(=C/c2ccc(OCc3cccs3)cc2)S1` [Derivative 22, 5-(4-(thiophen-2-ylmethoxy)benzylidene)thiazolidine-2,4-dione] gave a pIC50 of 6.60.

Turning to `O=C1NC(=O)/C(=C/c2ccc(OCc3ccsc3)cc2)S1` [Derivative 23, 5-(4-(thiophen-3-ylmethoxy)benzylidene)thiazolidine-2,4-dione], the negative logarithm of the IC50 (pIC50) is 6.41.

For the compound `O=C1NC(=O)/C(=C/c2ccc(OCCC3CCCC3)cc2)S1` [Derivative 24, 5-(4-(2-cyclopentylethoxy)benzylidene)thiazolidine-2,4-dione], the pIC50 is 6.94.

With `O=C1NC(=O)/C(=C/c2ccc(OCc3ccco3)cc2)S1` [Derivative 25, 5-(4-(furan-2-ylmethoxy)benzylidene)thiazolidine-2,4-dione], the negative logarithm of the IC50 (pIC50) is 5.73.

`Cc1ccc(COc2ccc(/C=C3\SC(=O)NC3=O)cc2)cc1` [Derivative 27, 5-(4-(4-methylbenzyloxy)benzylidene)thiazolidine-2,4-dione] had a pIC50 of 6.59.

For `COc1ccc(COc2ccc(/C=C3\SC(=O)NC3=O)cc2)cc1` [Derivative 28, 5-(4-(4-methoxybenzyloxy)benzylidene)thiazolidine-2,4-dione], the negative logarithm of the IC50 (pIC50) was 6.14.

In the case of `O=C1NC(=O)/C(=C/c2ccc(OCc3ccc4c(c3)OCO4)cc2)S1` [Derivative 29, 5-(4-(benzo[d][1,3]dioxol-5-ylmethoxy)benzylidene)thiazolidine-2,4-dione], the pIC50 is 6.51.

Compound `O=C1NC(=O)/C(=C/c2ccc(OC3CCCCC3)c(Cl)c2)S1` [Derivative 30, 5-(3-chloro-4-(cyclohexyloxy)benzylidene)thiazolidine-2,4-dione] showed a pIC50 of 7.31.

`O=C1NC(=O)/C(=C/c2ccc(OCC3CCCCC3)c(Cl)c2)S1` [Derivative 31, 5-(3-chloro-4-(cyclohexylmethoxy)benzylidene)thiazolidine-2,4-dione] gave a pIC50 of 7.57.

`O=C1NC(=O)/C(=C/c2ccc(OCCCC3CCCCC3)c(Cl)c2)S1` [Derivative 32, 5-(3-chloro-4-(3-cyclohexylpropoxy)benzylidene)thiazolidine-2,4-dione] had a pIC50 of 7.99.

`O=C1NC(=O)/C(=C/c2ccc(OCCCCC3CCCCC3)c(Cl)c2)S1` [Derivative 33, 5-(3-chloro-4-(4-cyclohexylbutoxy)benzylidene)thiazolidine-2,4-dione] gave a negative logarithm of the IC50 (pIC50) of 7.58.

With `O=C1NC(=O)/C(=C/c2cccc(OCCC3CCCCC3)c2Cl)S1` [Derivative 34, 5-(2-chloro-3-(2-cyclohexylethoxy)benzylidene)thiazolidine-2,4-dione], the pIC50 was 7.75.

For `O=C1NC(=O)/C(=C/c2ccc(OCC3CCCC3)cc2)S1` [Derivative 35, 5-(4-(cyclopentylmethoxy)benzylidene)thiazolidine-2,4-dione], the pIC50 is 7.37.

`O=C1NC(=O)/C(=C/c2ccc(OCc3ccc(CCl)cc3)cc2)S1` [Derivative 36, 5-(4-(4-(chloromethyl)benzyloxy)benzylidene)thiazolidine-2,4-dione] showed a pIC50 of 6.90.

Compound `CC1CCC(COc2ccc(/C=C3\SC(=O)NC3=O)cc2)CC1` (centres unmarked) [Derivative 37, 5-(4-((4-methylcyclohexyl)methoxy)benzylidene)thiazolidine-2,4-dione] gave a pIC50 of 7.18.

Compound `O=C1NC(=O)/C(=C/c2ccc(O)cc2)S1` [Derivative 39, 5-(4-hydroxybenzylidene)thiazolidine-2,4-dione] showed a pIC50 of 5.00.

`COc1ccc(/C=C2\SC(=O)NC2=O)cc1` [Derivative 40, 5-(4-methoxybenzylidene)thiazolidine-2,4-dione] showed a pIC50 of 5.25.

Compound `CCOc1ccc(/C=C2\SC(=O)NC2=O)cc1` [Derivative 41, 5-(4-ethoxybenzylidene)thiazolidine-2,4-dione] had a pIC50 of 5.24.

Compound `O=C1NC(=O)/C(=C/c2ccc(OCC3CCCCC3)cc2)S1` [Derivative 42, 5-(4-(cyclohexylmethoxy)benzylidene)thiazolidine-2,4-dione] had a negative logarithm of the IC50 (pIC50) of 6.66.

(Values after patent US8637558B2 (Industry-Academic Cooperation Foundation, Chosun University, priority 2008, dated 2014).)
